37 substances from patent US10556936B2, “Immunogenic proteins and fragments thereof from allergenic mites” (ALK-ABELLÓ A/S, priority 2016, dated 2020) can be followed below.

In the experiment the test system is HDM-specific T cells expanded from PBMCs of HDM-allergic individuals. The experiment can be described thus: T cell reactivity of peptides: IFN/IL-5 ELISPOT on in vitro expanded HDM-specific T cells. To be noted: for SFC/donor: individual peptides 10 μg/mL; for % responder: percentage of donors that produced a response against the peptide, 10 μg/mL. It is filed as cell-based, human. As to the method: Each sequence of an “L” cluster was aligned separately using the MEGA software tool with ClustalW. Fifteen-mer peptides overlapping by 10 amino acids were generated and the last 15-mer peptide was added when the sequence length was not divisible by 5, 14,783 unique peptides remained.
HLA class II binding predictions optimized for global coverage were performed for the seven class II alleles (HLA-DRB1*03:01, HLA-DRB1*07:01, HLA-DRB1*15:01, HLA-DRB3*01:01, HLA-DRB3*02:02, HLA-DRB4*01:01 and HLA-DRB5*01:01) using the standalone version of the IEDB class II binding prediction tool. The median consensus percentile rank was estimated from the consensus percentile ranks for the seven alleles. Further, peptides with more than ten overlapping amino acids, which appeared because several occurrences of some sequence regions were repeated multiple times in the same sequence, were eliminated (e.g. “[…]” was repeated seven times in one sequence.) Variant peptides were also removed, retaining the better peptide based on the median consensus percentile rank and conservation among the sequences within its respective cluster. Peptides with median consensus percentile rank ≤10.0 and conserved in ≥35% of sequences in the same cluster were finally selected, also including additional selected peptides chosen to maximize DRB1 allele coverage, for a grand total of 2,589 peptides.
Peptides were purchased from Mimotopes (Clayton, Victoria, Australia) or A and A (San Diego, Calif.) as crude material on a small (1-mg) scale. Individual peptides were resuspended in DMSO at a final concentration of 40 mg/mL. Peptide “megapools” of 30-65 peptides/pool were generated. Following lyophilization, each pool was reconstituted in DMSO so that each peptide was present at a concentration of 4 mg/mL. To facilitate deconvolution of positive megapools, each megapool was further broken down in 2-6 “mesopools” (259 mesopools in total), each containing 8-14 peptides. Each mesopool was then deconvoluted to identify individual positive peptides. To avoid dimerization and polymerization of peptides by intra- and intermolecular disulfide bond formation between cysteine residues, this amino acid were in some instances substituted by a serine residue in the peptides. Such peptides are herein marked with an asterisk (*).
PBMCs from European HDM-allergic individuals were recruited in the Copenhagen region (defined by clinical history of allergy to house dust mite and specific IgE to group 1 and group 2 major allergens from Der p and/or Der f and with measured specific IgE (CAP) >0.7 kU/L towards Der p/f 1 or Der p/f 2. In addition, PBMCs from 10 US HDM-allergic individuals were recruited in San Diego (defined by Der p extract IgE titers greater than 0.35 kUA/L). PBMCs were isolated from whole blood by density gradient centrifugation according to manufacturers' instructions (Ficoll-Hypaque, Amersham Biosciences, Uppsala, Sweden). Der p- and Der f-specific extract IgE titers were determined using the ImmunoCAP system (Thermo Fisher, Uppsala, Sweden). In a separate series of experiments, pooled plasma from 10 European and 10 American HDM atopic individuals from the San Diego region, respectively, was utilized to run 2D immunoblots to elucidate IgE and IgG reactivity towards the proteins, which had at least one peptide with positive T cell response.
HDM-specific T cells were expanded in vitro. Briefly, PBMCs from HDM-allergic individuals were stimulated with HDM extract (5 μg/mL) and expanded over 14-17 days with IL-2 (added every 3 days). Cells were harvested on day 14, restimulated with HDM extract (5 μg/mL), individual peptides (10 μg/mL) or peptide pools (5 μg/mL) and screened for […]/IL-5-production by ELISPOT. Criteria for positivity were 100 or 20 spot forming cells (SFCs) per 10^6 PBMCs for peptide pools or single peptides, respectively, p<0.05, and a stimulation index >2.

Consider “HKPIILGTLRNGATN (Immunogenic fragment) [Peptide 182, fragment of A0023 Der f]”, for which the SFC/donor worked out at 175 SFC/donor and the “% responder” value is given as 10%.

“73 (TLEQWHSKRYLLRLE; Immunogenic fragment) [compound 73]”: the SFC/donor was found to be 4 SFC/donor and the “% responder” value is recorded as 5%.

For the substance “111 (SSMRWTIPSILNFNM; Immunogenic fragment) [compound 111]”, the SFC/donor is 19 SFC/donor and the “% responder” value is 10%.

As to “101 (RHYNDQLHYNLHNLY; Immunogenic fragment) [compound 101]”, the SFC/donor is 10 SFC/donor and the “% responder” value worked out at 5%.

For the substance “121 (DIETQFMWGDSMLIA; Immunogenic fragment) [compound 121]”, the SFC/donor worked out at 8 SFC/donor and the “% responder” value was found to be 5%.

Turning to “67 (LMVHRRLLHDDYFGV; Immunogenic fragment) [compound 67]”, the SFC/donor stood at 2 SFC/donor and the “% responder” value is recorded as 5%.

On to “72 (KRYLLRLEHFYQSNE; Immunogenic fragment) [compound 72]”, for which the SFC/donor is on record as 4 SFC/donor and the “% responder” value stood at 5%.

In the case of “98 (WMDMFAEYHKTIAFD; Immunogenic fragment) [compound 98]”, the SFC/donor is 8 SFC/donor and the “% responder” value was 5%.

For the substance “77 (ANQPISSLKNRLHYR; Immunogenic fragment) [compound 77]”, the SFC/donor stood at 4 SFC/donor and the “% responder” value was determined as 5%.

As to “131 (PRIIRFNYDEQTNIL; Immunogenic fragment) [compound 131]”, the SFC/donor is reported as 160 SFC/donor and the “% responder” value is listed as 25%.

For “65 (LISIPEFVRKIPGRK; Immunogenic fragment) [compound 65]”, the SFC/donor came to 6 SFC/donor and the “% responder” value was 5%.

Regarding “149 (SSSQYQMAWAFGNNV; Immunogenic fragment) [compound 149]”, the SFC/donor came out at 12 SFC/donor and the “% responder” value was found to be 10%.

As to “50 (FIMLKPDAVQRGIVG; Immunogenic fragment) [compound 50]”, the SFC/donor amounted to 7 SFC/donor and the “% responder” value is listed as 5%.

Turning to “110 (ILSDWSSMRWTIPSI; Immunogenic fragment) [compound 110]”, the SFC/donor is listed as 36 SFC/donor and the “% responder” value was found to be 30%.

As to “53 (FEAKGFKLVAMKFMM; Immunogenic fragment) [compound 53]”, the SFC/donor came out at 7 SFC/donor and the “% responder” value is 5%.

For the substance “151 (FVYAKLRGAFSESTA; Immunogenic fragment) [compound 151]”, the SFC/donor is given as 9 SFC/donor and the “% responder” value is recorded as 5%.

Take “71 (LLRLEHFYQRFEDPS; Immunogenic fragment) [compound 71]”: the SFC/donor is given as 8 SFC/donor and the “% responder” value worked out at 5%.

As for “127 (SQHLGYQTNQSIIIL; Immunogenic fragment) [compound 127]”, the SFC/donor is 7 SFC/donor and the “% responder” value turned out to be 10%.

Take “45 (IMRILCCKSRKVAPC; Immunogenic fragment) [compound 45]”: the SFC/donor was found to be 4 SFC/donor and the “% responder” value worked out at 5%.

Regarding “138 (YHNLIGLPAMPPFWS; Immunogenic fragment) [compound 138]”, the SFC/donor is recorded as 3 SFC/donor and the “% responder” value is 5%.

Consider “143 (FNTAVLFDRQGKLLG; Immunogenic fragment) [compound 143]”, for which the SFC/donor is 11 SFC/donor and the “% responder” value was found to be 10%.

As to “52 (EIIRRFEAKGFKLVA; Immunogenic fragment) [compound 52]”, the SFC/donor came out at 40 SFC/donor and the “% responder” value was determined as 5%.

“96 (LPDFIRNVLHKNGQK; Immunogenic fragment) [compound 96]”: the SFC/donor is 5 SFC/donor and the “% responder” value is given as 10%.

“60 (HVAFNYAKMLDSAML; Immunogenic fragment) [compound 60]”: the SFC/donor amounted to 75 SFC/donor and the “% responder” value is given as 5%.

“89 (RAPFRKNTNWKRYTQ; Immunogenic fragment) [compound 89]”: the SFC/donor turned out to be 9 SFC/donor and the “% responder” value was found to be 5%.

Take “83 (DLSMTKLKRVRPSGF; Immunogenic fragment) [compound 83]”: the SFC/donor turned out to be 4 SFC/donor and the “% responder” value was found to be 5%.

For the substance “137 (HDNTELMKTKDFLLI; Immunogenic fragment) [compound 137]”, the SFC/donor was determined as 41 SFC/donor and the “% responder” value stood at 10%.

Regarding “70 (HSKRYLLRLEHFYQR; Immunogenic fragment) [compound 70]”, the SFC/donor came to 5 SFC/donor and the “% responder” value turned out to be 5%.

As for “120 (AHLYTLFYHVHKNGG; Immunogenic fragment) [compound 120]”, the SFC/donor is on record as 8 SFC/donor and the “% responder” value worked out at 5%.

For the substance “SLRGVTIRNAPFLEE (Immunogenic fragment) [Peptide 178, fragment of A0023 Der f]”, the SFC/donor is given as 42 SFC/donor and the “% responder” value stood at 10%.

For “119 (RYRFLAHLYTLFYHV; Immunogenic fragment) [compound 119]”, the SFC/donor was determined as 158 SFC/donor and the “% responder” value was 10%.

Turning to “144 (RYHKMHLFGEMTMNI; Immunogenic fragment) [compound 144]”, the SFC/donor was found to be 10 SFC/donor and the “% responder” value is recorded as 10%.

“66 (IVQEVHQQFDSFVGQ; Immunogenic fragment) [compound 66]”: the SFC/donor stood at 6 SFC/donor and the “% responder” value is recorded as 5%.

Regarding “115 (AFYSFVRNHNTDNAI; Immunogenic fragment) [compound 115]”, the SFC/donor is on record as 15 SFC/donor and the “% responder” value came to 20%.

“102 (QLHYNLHNLYGFQEA; Immunogenic fragment) [compound 102]”: the SFC/donor came to 14 SFC/donor and the “% responder” value stood at 10%.

Regarding “117 (IRAARSSLQYRYRFL; Immunogenic fragment) [compound 117]”, the SFC/donor is 20 SFC/donor and the “% responder” value was 20%.

Take “106 (AALTKLNKRPFIISR; Immunogenic fragment) [compound 106]”: the SFC/donor is 14 SFC/donor and the “% responder” value is given as 10%.
